The values below come from patent US5807729A, “Metalloprotease having increased activity” (Novo Nordisk A/S, priority 1995, dated 1998).

The target of test [1] is T1, p45 Metalloprotease (Fusarium oxysporum, UniProt M1UZ70). Nature of the test: Inhibitor analysis of the p45 metalloprotease. The format is biochemical. Further details: precursor 632 aa (18 signal, 226 pro); native or A. oryzae-expressed with same N-terminus. How it is done: (§1) Other metalloprotease inhibitors are utilized to further differentiate the p45 metalloprotease from the Bacillus thermolysins. Inhibition constants for 1,10-phenanthroline, phosphoramidon, and CdCl2 are determined to be 130 uM, 1 uM, and 67 uM against the p45 Metalloprotease (Table 3). Inhibition constants for 1,10-phenanthroline, phosphoramidon, and CdCl2 are 85 uM, 26 uM, and 2 uM against the Bacillus stearothermophilus thermolysin. […] It is of interest to note that phophoramidon is an effective inhibitor of many bacterial metallo-endopeptidases but few of mammalian origin. Also, it is interesting that CdCl2 is found to be such an effective inhibitor of metalloproteases. No evidence of CdCl2 inhibition of metalloproteases has been found in the literature.

The subject of test [2] is Bacillus stearothermophilus thermolysin. Put plainly: Inhibitor analysis of B.s. thermolysin. It is filed as biochemical. The settings on record: for Ki: read-out: Inhibition Constant (Ki), B.s. Thermolysin. On the procedure:
as §1

Test [3] concerns Fusarium oxysporum metalloprotease. Put plainly: Inhibition of Fusarium metalloprotease with 1,10-phenanthroline / EDTA and reactivation with Zn2+. The settings on record: inhibitor 1 mM. The format is biochemical. On the procedure: (§2) Metalloprotease activity is measured as released trypsin activity from pro-trypsin-like Fusarium oxysporum protease deposited at the Deutsche Sammlung von Mikroorganismen, Gottingen, Germany under the number DSM 2672, after a 30-60 min pre-incubation at 25° C. in 0.1M Tris, 2 mM CaCl2, pH 7 (at lower pH, 100 mM borate, 10 mM DMG, 2 mM CaCl2 is used).
Metalloproteases contain a catalytic zinc metal center which participates in the hydrolysis of the peptide backbone. The active zinc center differentiates these proteases from calpains whose activities are dependent upon the presence of calcium. Confirmation of a protease as a metallo-protease is loss of proteolytic activity accomplished by removal of the zinc center with 1,10-phenanthroline (1 mM) followed by titration with Zn^2+ (0.1-100 μM) to restore full activity.
(§3) However, when combined the metalloprotease cleaves recombinant pro-trypsin-like Fusarium oxysporum protease disclosed, supra to yield the active tryptic protease. Metalloprotease activity is halted upon the addition of 1 mM 1,10-phenanthroline (Table 1).

Test [4] deals with T2, trypsin-like Fusarium oxysporum protease (Fusarium oxysporum, UniProt P35049).
T2 construct: the metalloprotease cleaves recombinant pro-trypsin-like Fusarium oxysporum protease disclosed, supra to yield the active tryptic protease; made in house; host or cells: Aspergillus oryzae (IFO 4177), plasmid pSX183
T2 sequence (P35049 25-248): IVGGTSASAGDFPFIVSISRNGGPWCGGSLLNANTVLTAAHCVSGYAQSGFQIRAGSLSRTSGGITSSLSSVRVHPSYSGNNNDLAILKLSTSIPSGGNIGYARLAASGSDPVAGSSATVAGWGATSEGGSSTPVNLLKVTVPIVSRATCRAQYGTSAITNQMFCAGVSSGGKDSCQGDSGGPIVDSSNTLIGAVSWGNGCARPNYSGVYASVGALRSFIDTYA
Put plainly: Effect of 1,10-phenanthroline on tryptic activity (L-BAPNA). The format is biochemical. The settings on record: 1,10-phenanthroline 1 mM. On the procedure: as §2, §3

Test [5] concerns the target trypsin-like F. oxysporum protease (Fusarium oxysporum, UniProt P35049). The settings on record: 2M NaCl; FIG. 11.
For a further test, the system named is bacterial thermolysins. The settings on record: 1M NaCl.
Test [6] deals with T1, p45 Metalloprotease. The settings on record: 1M NaCl; FIG. 11.
For test [7], the target named is T1, p45 Metalloprotease. Put plainly: Effect of the pentapeptide on processing of pro-trypsin-like protease by p45. It is filed as biochemical. Further details: precursor 632 aa (18 signal, 226 pro); native or A. oryzae-expressed with same N-terminus. The settings on record: 45-minute pre-incubation at room temperature. How it is done: After a 45-minute pre-incubation at room temperature with gentle shaking, the mixtures are diluted 500-fold and assayed for trypsin-like F. oxysporum protease activity.

In test [8] the target is T1, p45 Metalloprotease. Nature of the test: Influence of heavy metal additions on p45 metalloprotease activity (FTC-casein). The format is biochemical. Also noted: precursor 632 aa (18 signal, 226 pro); native or A. oryzae-expressed with same N-terminus. The settings on record: CoCl2 0-4 mM, p45 0.9 ug. How it is done:
Samples are incubated at room temperature for 30 minutes.
It is interesting that substoichiometric levels of Zn are found after metal analysis (ICP) of the p45 metalloprotease. It appears that zinc levels are only 5% of that expected based on the level of p45 metalloprotease in the sample. No other heavy metal (i.e. Cd, Cr, Co, Cu, Mo, Ni, Li, […], Fe, Mn, As, Pb, or Se) is present in the p45 maturase sample.

In test [9] the target is T3, p45 metalloprotease from Fusarium oxysporum (Fusarium oxysporum).
T3 chain: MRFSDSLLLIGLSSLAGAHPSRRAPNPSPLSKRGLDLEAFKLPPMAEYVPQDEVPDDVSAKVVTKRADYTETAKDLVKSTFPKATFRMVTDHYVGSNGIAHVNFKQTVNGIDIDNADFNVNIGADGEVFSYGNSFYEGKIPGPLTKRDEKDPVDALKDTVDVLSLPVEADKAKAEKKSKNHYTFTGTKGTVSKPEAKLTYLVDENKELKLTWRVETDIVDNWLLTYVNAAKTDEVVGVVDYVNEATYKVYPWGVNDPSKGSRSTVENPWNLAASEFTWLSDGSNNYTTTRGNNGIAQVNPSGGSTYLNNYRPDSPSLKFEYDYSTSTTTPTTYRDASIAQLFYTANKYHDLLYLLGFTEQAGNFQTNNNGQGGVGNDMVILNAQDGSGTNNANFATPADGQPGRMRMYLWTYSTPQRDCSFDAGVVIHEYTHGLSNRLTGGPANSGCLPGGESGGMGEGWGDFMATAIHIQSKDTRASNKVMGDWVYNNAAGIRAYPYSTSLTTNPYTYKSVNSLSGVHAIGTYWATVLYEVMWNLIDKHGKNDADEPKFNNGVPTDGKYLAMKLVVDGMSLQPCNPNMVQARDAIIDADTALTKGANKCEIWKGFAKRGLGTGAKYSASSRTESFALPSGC
Nature of the test: enzyme inhibition, kinetic analysis of p45 activity.

Read-outs that look alike come from different tables or passages of the source. Square brackets hold non-standard residues; d marks the D form. Peptide text beside a SMILES is read from it. pGlu = O=C1CC[C@@H](C(=O)O)N1 Some results are limits rather than exact numbers.

Chain of trypsin-like F. oxysporum protease (P35049 25-248 limits assumed): as the sequence (P35049 25-248) above
Description for bacterial thermolysins: FTC-casein (20 microliters, 0.5% w/w in 50 mM Tris-Cl, pH 7.2), NaCl (0-2M) in trypsin-like F. oxysporum protease sample buffer, and either trypsin-like F. oxysporum protease (10 microliters, 1.8 ug) or p45 metalloprotease (10 microliters, 0.33 ug) are added to trypsin-like F. oxysporum protease sample buffer to a total volume of 50 microliters. Samples are incubated at room temperature for 30 minutes. At the end of the incubation, 150 microliters of 5% (w/v) trichloroacetic acid is added and the samples are allowed to precipitate for 60 minutes at 4° C. Samples are subsequently centrifuged (14,000 rpm, 5 minutes) and 30 microliters of supernatant are added to 3 ml of 0.5M sodium borate, pH 9.
The fluorescence of the samples is measured (Perkin-Elmer fluorimeter) using a 2.5 nm slit width, excitation at 490 nm and emission detected at 525 nm.

By Ki is commonly meant a dissociation constant, usually derived from enzyme kinetics or from competition with a known ligand. `c1cnc2c(c1)ccc1cccnc12` [1,10-phenanthroline]: the Ki was 130 µM at p45 Metalloprotease [1] and 85 µM in [2]. Also, the “type of inhibition, p45 Maturase” value at p45 Metalloprotease [1] (kinetic analysis) is on record as “Noncompetitive”. The “type of inhibition, B.s. Thermolysin” value in test [2] (kinetic analysis) was “Noncompetitive”. For the same molecule, the “metalloprotease activity upon addition of the inhibitor” value in test [3] is “halted”. Besides, the “inhibition of trypsin-like protease” value in test [4] was “not inhibited”.

Consider `[Cl-].[Na+]` [NaCl], for which the “inhibition of trypsin-like F. oxysporum protease activity” value in [5] is 25%. Also, the “inhibition of bacterial thermolysins” value in the test on bacterial thermolysins is 38%. The “inhibition of p45 metalloprotease activity” value on p45 Metalloprotease [6] came out at 85%.

For the molecule `CC[C@H](C)[C@H](NC(=O)[C@H](CCC(=O)O)NC(=O)[C@@H]1CCC(=O)N1)C(=O)N1CCC[C@H]1C(=O)N[C@@H](CC(N)=O)C(=O)O` [<E-E-I-P-N, pyroGlu-Glu-Ile-Pro-Asn-COOH] ([pGlu]EIPN-OH), the Ki (on p45 Metalloprotease [1]; in test [2] (no effect)) was greater than 5000 µM each time. For the same molecule, the “effect of the pentapeptide on p45 metalloprotease activity” value at p45 Metalloprotease [7] was “not an inhibitor of p45 metalloprotease activity”.

Turning to `[Cl-].[Cl-].[Co+2]` [CoCl2], the “enhancement of p45 metalloprotease activity” value at p45 Metalloprotease [8] was “no enhanced activity”.

B1: synthetic pentapeptide pyroGlu-Glu-Ile-Pro-Asn-COOH (peptide)
peptide: [pGlu]EIPN-OH
SMILES: CC[C@H](C)[C@H](NC(=O)[C@H](CCC(=O)O)NC(=O)[C@@H]1CCC(=O)N1)C(=O)N1CCC[C@H]1C(=O)N[C@@H](CC(N)=O)C(=O)O
Molecule B1 yielded an inhibition constant (Ki) in [9] greater than 5000 µM.
